Assay results: patent US20160271086A1, “METHODS AND COMPOSITIONS FOR INDUCING REGULATORY T-CELL GENERATION” (SLOAN-KETTERING INSTITUTE FOR CANCER RESEARCH, priority 2013, published 2016)

Columns and labels:
Flt3L-elicited DC = test: Foxp3 induction by DC pre-treated with SCFA or TSA for 6 h, washed, co-cultured with naïve CD4+ T cells; type: cell-based, mouse; details: DC pre-treated 6 h, then agent removed
Procedure: DC were expanded in vivo by subcutaneous injection of B16 melanoma cells secreting FLT3-ligand into the left hind flank of mice as indicated. Once tumors were visible, spleens from injected animals were dissociated in RPMI 1640 medium containing 1.67 U mL-1 liberase TL (Roche) and 50 μg mL-1 DNAse I (Roche) for 20 min at 37° C. with shaking EDTA was then added at a final concentration of 5 mM to stop digestion and the resulting homogenate was processed for CD11c+ cell isolation using the MACS mouse CD11c (N418) purification kit (Miltenyi Biotec).
In vitro Foxp3 induction assays were performed by co-culturing DC with 5.5×10^4 CD4+CD44loCD62LhiCD25-naïve T cells in the presence of 1 μg ml-1 of CD3 antibody, 1 ng mL-1 TGF-β, and 100 U ml-1 IL-2, in 96-well flat-bottom plates for 4 d. For Foxp3 induction in the presence of butyrate- or TSA-pretreated DC, TGF-β was used at 0.1 ng mL-1 final concentration. In vitro induction assays in the absence of DC were performed by incubating 5.5×10^4 naïve CD4+ T cells with 1 ng mL-1 TGF-β, 100 U ml-1 IL-2, and a 1:1 cell-to-bead ratio of CD3/CD28 T activator Dynabeads (Invitrogen). For in vitro suppression assays, 4×10^4 naïve CD4+ T cells were FACS-sorted from B6 mice and cultured with graded numbers of CD4+Foxp3+ Treg cells FACS-sorted from Foxp3GFP mice treated with antibiotics and with or without butyrate, in the presence of […] irradiated T cell-depleted splenocytes and 1 μg ml-1 CD3 antibody in a 96-well round-bottom plate for 80 h. Proliferation of T cells was assessed by [3H]-thymidine incorporation during the final 8 h of culture.

LPS response genes = test: Gene expression in DC (microarray, Relb qPCR); type: cell-based, mouse; details: 6 h
Procedure: FIG. 4 depicts HDAC-inhibitory activity of butyrate decreases pro-inflammatory cytokine expression within DC to promote Treg induction: A) Histone acetylation in Flt3L-elicited DC from B6 mice treated with the indicated SCFA (500 μM) or TSA (10 nM) for 6 h followed by acid extraction of histones from isolated nuclei, SDS-PAGE and blotting with antibody for pan-acetylated H3. Total histone H3 served as a loading control; B) Induction of Foxp3 expression upon stimulation of naïve CD4+ T cells by CD3 antibody in the presence of SCFA or TSA, Flt3L-elicited DC and TGF-β; C) RelB gene expression quantified by qPCR in purified Flt3L-elicited DC from B6 mice treated for 6 h with SCFA or TSA, as in (A); and D) RelB gene expression quantified by qPCR in purified Flt3L-elicited DC from B6 mice treated with or without TSA in combination with, or in the absence of, butyrate at the indicated concentrations.
The data are shown as percent of CD4+ cells expressing Foxp3 after 4 days of culture. Data are representative of 2 independent experiments; error bars denote SEM.

dendritic cells = test: Treg induction by dendritic cells treated with soluble or liposome encapsulated TSA; type: cell-based; details: DC treated 6 hrs with soluble or liposome encapsulated TSA, washed, incubated with naïve CD4+ T cells
Source text: TSA was encapsulated in lipid particles containing mixtures of lipids for release of contents only upon entry into cells. For details see Karve et al. Langmuir 2008, 24, 5679-5688. To monitor incorporation of TSA into liposomes, lipids were dissociated with hydrogenated Triton-X and monitored for increased UV absorption compared to free TSA and ‘empty’ liposomes. >85% of free TSA is incorporated into the lipid particles.
The ability of dendritic cells to induce Treg development in vitro after exposure to lipopsome encapsulated TSA was evaluated. Doubly bead-purified dendritic cells were treated for 6 hrs with soluble or liposome encapsulated TSA then washed and incubated with naïve CD4+ T cells. Pretreatment of DCs with TSA increased the generation of Foxp3+ cells relative to vehicle control (FIG. 11).

T cells = details: Wang et al. 2009; Tao et al. 2007; cited from earlier work

CC(/C=C/C(=O)NO)=C\[C@@H](C)C(=O)c1ccc(N(C)C)cc1 [TSA, trichostatin A]
ability of pre-treated DCs to induce Foxp3 expression in naïve CD4+ T cells (Flt3L-elicited DC): potently induced
expression of LPS response genes including 1112, 116, and Relb in DCs (LPS response genes): systemic repression
generation of Foxp3+ cells relative to vehicle control (dendritic cells): increased
Treg cell generation in vitro by acting on T cells (T cells): potentiates
